Laboratory results from publication PMC6566782, “Prodrugs for Skin Delivery of Menahydroquinone-4, an Active Form of Vitamin K2(20), Could Overcome the Photoinstability and Phototoxicity of Vitamin K2(20)” (International Journal of Molecular Sciences, 2019).

Experiments:
[1] = Photostability in ethanol under monochromatic light of different wavelengths, LC-MS/MS; format: physicochemical; details: 1 µM in ethanol, 25 °C
Description: To evaluate the effect of irradiation wavelength on photostability of MK-4 and MKH-ester derivatives, 1 μM solutions of MK-4, MKH-DMG, and MKH-SUC in ethanol were irradiated with a xenon light source monochromatic light at 279, 341, 373, 404, or 435 nm, and the concentration of each compound was measured by LC-MS/MS. The log of concentration of each compound was plotted against irradiation energy (Figure 3), and the rates and half-life energies of degradation were obtained from slopes (Table 2). […] Hydrolytic degradations of MKH-DMG and MKH-SUC to their corresponding monoesters were accelerated only at the short wavelength of 279 nm (Figure 3B,C).
Solutions of MK-4 and MKH derivatives in ethanol (1 µM) were irradiated with artificial sunlight (SOLAX 100 W XC-100 B, Seric Ltd., Tokyo, Japan) at 12,000 lx in quartz cells. Illuminance was measured using a digital luminometer (LX-1108, Mother Tool). Irradiation samples (1 µM in ethanol) were irradiated with artificial sunlight at 12,000 lx, and with monochromatic light (279, 341, 373, 404, and 435 nm) using a multi-wavelength irradiation spectrometer (MM 3, Bunkoukeiki Co., Ltd., Tokyo, Japan). Irradiation intensity was measured using an irradiation energy measurement power meter (MM 3, Bunkoukeiki Co., Ltd.).
LC-MS/MS was performed using an LCMS-8050 Liquid Chromatograph Mass Spectrometer (Shimadzu, Kyoto, Japan) and Shimadzu HPLC System (system controller (CBM-20A), pump (LD-20AD), degasser (DGU-20As), UV detector (SPD-20A), and auto injector (SIL-20AC HT)). Separations were performed on a CAPCELL PAK C18 UG120 (3 μm, 2.0 mm × 100 mm, Shiseido Co., Ltd., Tokyo, Japan) using a mobile phase of 10 mmol/L ammonium acetate and 0.1% acetic acid in methanol and water (97:3) at a flow rate of 0.4 mL/min. Column temperature was maintained at 40 °C. The mass spectrometer was equipped with an electrospray ionization and was run in positive ion mode. Identification and quantitation were based on MS/MS-multiple reaction monitoring mode using transition ions as follows: m/z 445 → 187 for the [M+H]^+ MK-4 adduct, m/z 445 → 187 for the [M + H]^+ chromenol adduct, 619 → 58 for the [M + H]^+ MKH-DMG adduct, m/z 532 → 58 for the [M + H]^+ MKH-mono-DMG adduct, m/z 664 → 187 for the [M + H]^+ MKH-SUC adduct, m/z 564 → 187 for the [M + H]^+ MKH-mono-SUC adduct, and m/z 461 → 81 for the [M + H]^+ MKO adduct.

[2] = Singlet oxygen generation assay (p-nitrosodimethylaniline-based ROS assay) after UVA irradiation; format: physicochemical; details: phosphate-buffered aqueous solution pH 7.4, UVA irradiation 0–15 J/cm^2
Description: It has been reported that singlet oxygen promotes the peroxidation of skin surface lipids, resulting in the induction of skin inflammation. Thus, we measured the irradiation intensity-dependent generation of singlet oxygen by MK-4, MKH-DMG, and MKH-SUC in phosphate-buffered aqueous solution after UVA irradiation using a p-nitrosodimethylaniline-based ROS assay (Figure 4).
MK-4 and MKH derivatives were dissolved in a phosphate buffer (NaPB, pH 7.4) containing 0.2% polyoxyethylene hydrogenated castor oil 40 (HCO 40, obtained as a gift sample from Nikko Chemicals Co., Ltd., Osaka, Japan), 2% dimethyl sulfoxide, and 0.1% glycerol. The solutions were treated according to the singlet oxygen assay method (The Japanese Center for the Validation of Alternative Methods, JaCVAM) and irradiated with UVA light from a CL-1000L UV Crosslinker (UVP, Upland, CA, USA). Absorbance was measured using an Infinite M200 PRO (Tecan Life Sciences, Zurich, Switzerland).

HaCaT cells = assay: Intracellular MKO levels after treatment with sunlight-irradiated MK-4 and MKH derivatives; format: cell-based, Human; details: 48 h treatment, compound irradiated with sunlight 12,000 lx for 3 h
Description: To confirm whether MKH prodrugs could successfully deliver MKH to dermal cells under sunlight, the intracellular level of MKO in HaCaT cells was determined following administration of MK-4 and MKH derivatives in the presence or absence of artificial sunlight irradiation. […] MKO levels were increased after administration of MKH-DMG and MKH-SUC in sunlight, but these were approximately 60% that of the cells treated with their respective compounds in shading conditions.
HaCaT cells were seeded at 5.0 × 10^4 cells/well in 24-well plates and allowed to attach for 48 h. Cells were cultured in medium containing 5 µM MK-4, MKH-DMG, or MKH-SUC, then medium was removed and cells were washed twice with PBS. Cells were collected in 500 µL of PBS and sonicated. Cell homogenates were combined with an equal volume of methanol and three times volume of n-hexane, vortexed for 2 min, and centrifuged at 1750× g for 10 min. The organic layer was evaporated under N2 gas. The residue was reconstituted with 20 μL of methanol, and subjected to LC-MS/MS, as described below. The protein concentration of the cell homogenate was determined using a BCA protein assay kit (Thermo Fisher Scientific, Waltham, MA, USA).
Solutions of 200 µM MK-4, MKH-DMG, or MKH-SUC in ethanol were irradiated with artificial sunlight for 3 h at 12,000 lx in quartz cells. After irradiation, ethanol was evaporated under N2 gas. […]

CC(C)=CCC/C(C)=C/CC/C(C)=C/CC/C(C)=C/CC1=C(C)C(=O)c2ccccc2C1=O [MK-4, menaquinone-4, reference compound]
rate constant (k) of degradation ([1]; monochromatic light 279 nm): 0.533 J^−1·cm^2 | rate constant (k) of degradation ([1]; monochromatic light 341 nm): 0.422 J^−1·cm^2 | rate constant (k) of degradation ([1]; monochromatic light 373 nm): 0.151 J^−1·cm^2 | rate constant (k) of degradation ([1]; monochromatic light 435 nm): 0.035 J^−1·cm^2 | singlet oxygen generation [2]: increased formation of singlet oxygen in an irradiation energy-dependent manner | intracellular MKO level after sunlight irradiation compared to shade (HaCaT cells): seriously reduced
